Data set [1] has as its system zrt1 mutant (ZHY1) cells. The data set is classed as cell-based, Saccharomyces cerevisiae. To be noted: for effect on zrt1 growth in LIM: 500 μM metal added to iron-limiting medium LIM (1 mM EDTA). The method, then:
Strains used were DY1457 (MATα ade6 can1 his3 leu2 trp1 ura3) and ZHY1 (MaTα ade6 can1 his3 leu2 trp1 ura3 zrt1:: LEU2). Yeast were grown in standard culture media (SD, YPD) (Eide, D., Davis-Kaplan S., Jordan, I., Sipe, D., and Kaplan, J. (199: 2) J. Biol. Chem. 267, 20774-20781) supplemented with necessary auxotrophic requirements and either 2% glucose or 2% galactose. A zinc-limiting medium (LZM) was prepared in the same manner as LIM (Eide and Guarenete (1992) J. Gen. Microbiol. 138:347-354) except that […]. Cell number in liquid cultures was determined by measuring the optical density of cell suspensions at 600 nm (A600) and converting to cell number with a standard curve.
(§1) Strains used were DY1457 (MATα ade6 can1 his3 leu2 trp1 ura3), ZHY1 (AMTα ade6 can1 his3 leu2 trp1 ura3 zrt1::LEU2), ZHY2 (MATα ade6 can1 his3 leu2 trp1 ura3 zrt2::HIS3), and ZHY3 (MATα ade6 can1 his3 leu2 trp1 ura3 zrt1::LEU2 zrt2::HIS3). Yeast were grown in YP or SD media (Sherman et al. (1986) Methods in Yeast Genetics, Cold Spring Harbor Laboratory, Cold Spring Harbor, N.Y.) supplemented with necessary auxotrophic requirements and either 2% glucose or 2% galactose. Zinc-limiting YP and SD agar plates contained either bathophenanthroline disulfonate (BPS, 200 μM) or EDTA (1 mM), respectively. A liquid zinc-limiting medium (low zinc medium, LZM) was prepared in the same manner as low iron medium (LIM) (Eide and Guarente (1992) J. Gen. Microbiol. 138:347-354) except that the […]. LZM is similar in composition to SD medium with two modifications essential to controlling zinc availability. First, 1 mM EDTA is added to provide buffering for the concentration of free metal ions. Second, the medium is pH-buffered at 4.2 with 20 mM citrate to prevent pH changes that could alter the metal binding ability of EDTA. LZM was also prepared without EDTA ([…]) which is less zinc-limiting because the predominant chelator in this medium, citrate, binds zinc with less affinity than does EDTA. The concentrations of free (i.e. unchelated) zinc were calculated using MAXCHELATOR software (Chris Patton, Stanford University). Cell number in liquid cultures was determined by measuring the absorbance of cell suspensions at 600 nm (OD600) and converting to cell number with a standard curve.
To examine the function of ZRT1, a disruption mutation, zrt1::LEU2, was constructed by inserting the LEU2 gene into the center of ZRT1 (FIG. 6). This zrt1 disruption allele was then introduced into a haploid yeast strain. […] Because of the high EDTA concentration in LIM (1 mM), this medium is expected to have low available levels of other metals that are bound tightly by this chelator. Supplements of other metals were tested for improved growth of the zrt1 mutant in LIM. […] To study this effect further, a low zinc medium, LZM, was developed in which cell growth could be limited by zinc deficiency and the growth response of the wild type and zrt1 mutant strains to increasing levels of supplemented zinc was examined. Wild type (DY1457, squares) and zrt1 mutant (ZHY1, circles) cells were inoculated into LZM supplemented with the indicated amount of ZnSO4 and grown for 16 hours prior to cell number determination. […] Mutant zrt1 cells attained this same maximum number of cell divisions only with zinc supplements of 750 μM or more, i.e. a 75-fold increase in the zinc requirement of the zrt1 mutant compared to the wild type.
To further assess the role of the low affinity system as a source of zinc, growth of wild type and zrt2 cells in a zinc-limiting medium, LZM, supplemented with increasing amounts of zinc was examined. The same strains as in FIG. 15 were grown for six hours in SD glucose medium, harvested, washed in LZM, and reinoculated into either LZM (FIG. 15A) or LZM-EDTA (FIG. 15B) supplemented with the indicated concentrations of ZnCl2 ([Zn]T). […]

Data set [2] relates to zrt1zrt2 (ZHY3) cells. The experiment in a line: Zinc-limited growth, zrt1zrt2 mutant yeast. It counts as cell-based, Saccharomyces cerevisiae. The method, then:
as §1
To further assess the role of the low affinity system as a source of zinc, growth of wild type and zrt2 cells in a zinc-limiting medium, LZM, supplemented with increasing amounts of zinc was examined. The same strains as in FIG. 15 were grown for six hours in SD glucose medium, harvested, washed in LZM, and reinoculated into either LZM (FIG. 15A) or LZM-EDTA (FIG. 15B) supplemented with the indicated concentrations of ZnCl2 ([Zn]T). These cultures were then grown for 16 hours at 30° C. prior to cell number determination. Number of cell divisions are plotted against [Zn]T and the calculated free zinc concentration ([Zn]F). The metal ion buffering capacity of EDTA in LZM is exceeded at concentrations above 100 μM total zinc whereas the metal buffering capacity of citrate in LZM-EDTA maintains a linear relationship between [Zn]T and [Zn]F to concentrations greater than 1 mM. It has been shown previously that the zrt1 mutant requires greater than 500 μM total zinc ([Zn]T) in LZM to undergo its maximum number of cell divisions and this value corresponds to a calculated free (i.e. unchelated) zinc concentration ([Zn]F) of approximately 500 μM. […]

Each structure is given as a SMILES string. Several values for one entry are separate records, joined by “and”; a condition that tells them apart may be missing. Identical values can stand only once.

With `[Zn+2]` [zinc], the “effect on zrt1 growth in LIM” value in data set [1] is given as “greatly enhanced growth”. Moreover, the “increase in zinc requirement of zrt1 mutant compared to wild type” value in data set [1] (growth in zinc-limiting medium) is 75 fold and 100 fold. For the same compound, the “total zinc required for maximum number of cell divisions” value in data set [1] (zrt1, LZM) is on record as “approximately 500 μM”. The “total zinc for maximum number of divisions” value was found to be 0.5 µM in data set [1] (zrt1, LZM-EDTA (LZM without EDTA), 16 hours) and 500 µM in data set [2] (zrt1zrt2, LZM-EDTA, 16 hours). For the same compound, the “calculated free zinc [Zn]F for maximum number of divisions” value in data set [1] (zrt1, LZM-EDTA, 16 hours) is about 6 nM; in data set [2] (zrt1zrt2, LZM-EDTA, 16 hours), about 6 µM. In addition, the “growth rate versus untreated culture” value in data set [1] (zrt1 cells, SD glucose supplemented with 2 mM ZnCl2) was “No difference in growth rate”. Also, the “zinc required in the medium relative to the wild type strain” value in data set [2] (zrt1zrt2 vs wild type) is reported as “greater than 10^5 fold”. In data set [2] (zrt1zrt2 vs zrt1), the “zinc required for growth relative to the zrt1 strain” value is recorded as “at least 1000 fold”.

As for `[Cl-].[Cl-].[Co+2]` [Co], the “effect on zrt1 growth in LIM” value in data set [1] is “no effect”.

In the case of `[Cl][Mn][Cl]` [Mn], the “effect on zrt1 growth in LIM” value in data set [1] is listed as “no effect”.

With `[Cl][Cu][Cl]` [Cu], the “effect on zrt1 growth in LIM” value in data set [1] was “no effect”.
